The source of these data is patent publication US20250263457A1, “Pharmaceutical Composition for Preventing and Treating Liver Disease Comprising Novel Peptide” (Pusan National University Industry-University Cooperation …, priority 2024, published 2025).

This experiment concerns CD44. The experiment in a line: CD44 and CD44ICD expression in liver tissue of mouse model (IHC, Western blot). Type of experiment: in vivo, C57BL/6 male mice. Particulars: 3.3 μg/kg i.p. every other day for three weeks. The text has this:
To prepare alcohol-related liver disease mice, 8-week-old C57BL/6 male mice were fed with a Lieber DeCarli liquid diet (Dyets, 710260) containing 5% EtOH for 9 weeks, and then injected intraperitoneally with a vehicle (PBS) every other day along with feeding liquid diet for additional 3 weeks. As a control group for the EtOH diet, mice fed with a pair Lieber DeCarli liquid diet (Dyets, 710027) having the same total calories as the EtOH diet were used (FIG. 4A).
The alcohol-related liver disease mouse model established by the method of Example 5.1 was administered vehicle (PBS) or peptide YJ (3.3 μg/kg) intraperitoneally every other day for three weeks, and then blood was collected and liver tissue was extracted to confirm the liver disease treatment effect of peptide YJ.
The expression of CD44 and CD44ICD in liver tissues extracted from the experimental mice of Example 5.3, or nuclear proteins or whole proteins (whole lysate) of liver tissues, was confirmed through immunohistochemical staining and Western blot. The immunohistochemical staining was performed using anti-CD44 antibody and anti-CD44ICD antibody by the method of Example 5.2.3, and Western blot was performed by the method of Examples 2 and 4.
A general note: A western blot detects proteins with antibodies after separation by electrophoresis.

The mark [1] stands for this setting: EtOH diet group, vs vehicle, Western blot (FIG. 8B).

Regarding “peptide YJ: TSG-6 fragment: core domain RSGKYKLTYAEAKA plus C-terminal extension VCEFEGGHLATYKQLEAARKIGFHVCAAGWMAK (SEQ ID NO: 9); TSG-6 mimetic (RSGKYKLTYAEAKAVCEFEGGHLATYKQLEAARKIGFHVCAAGWMAK; peptide 4)”, under setting [1], the “expression of CD44ICD in whole lysate of liver tissue” value is “reduced” and the “expression of CD44 in whole lysate of liver tissue” value is “reduced”. For the same substance, the “expression of CD44ICD in nuclear protein of liver tissue” value (EtOH diet group, vs vehicle, Western blot (FIG. 8C)) was “significantly reduced”. Besides, the “expression of CD44 in liver tissue” value (immunohistochemical staining (FIG. 8A)) is “decreased”.
